# Patent publication US9801901B2, “Alginate oligomers for use in overcoming multidrug resistance in bacteria” (priority 2009, dated 2017)
# Where two headings read alike, the source gives them in different places. Marks after values point to notes of the source that are not given here.
# Key:
# [1] = tested on: V9 (Egypt) Acinetobacter baumannii; experiment: MIC assay, CAMHB with alginate oligomer, no visible growth; assay type: cell-based; conditions: Table 5, V9 MDR Acin. baum
# [2] = tested on: strains of E. coli displaying MDR phenotypes; experiment: MIC-assay, Mueller-Hinton broth with G-block alginate, 384-well, OD600 (Table 11); assay type: cell-based; conditions: Escherichia coli, Escherichia coli (5702, Wales, V11) MDR, read-out: MIC
# From the text: (§1) Minimum inhibitory concentration (MICs) of different antibiotics for strains of E. coli and Providencia stuartii displaying MDR phenotypes in the presence of varying concentrations of OligoCF-5/20 (0-10%). (MIC values are expressed in μg ml^−1).
# [3] = tested on: MDR Providencia stuartii; experiment: as above; assay type: cell-based; conditions: Providencia stuartii (IR57 India, V7) MDR
# From the text: as §1
# [4] = tested on: Pseudomonas aeruginosa (MDR 301, PSA, V2); experiment: MIC-assay, Mueller-Hinton broth with G-block alginate, 384-well, OD600; conditions: Pseudomonas aeruginosa, Table 8, V2
# [5] = tested on: V12 5725 (Wales) Klebsiella pneumoniae; experiment: MIC assay, CAMHB with alginate oligomer, no visible growth; assay type: cell-based; conditions: Table 5, V12 MDR Kleb pneu
# [6] = tested on: Acinetobacter baumannii (MDR ACB, Libya, V4); experiment: MIC-assay, Mueller-Hinton broth with G-block alginate, 384-well, OD600
# [7] = tested on: PA01 Pseudomonas aeruginosa ATCC 15692; experiment: MIC assay, two-fold antibiotic dilutions in CAMHB with alginate oligomer, no visible growth; assay type: cell-based; conditions: PA01
# [8] = tested on: V10 (Egypt) Acinetobacter lwoffii; experiment: MIC assay, CAMHB with alginate oligomer, no visible growth; assay type: cell-based; conditions: Table 5, V10 MDR Acin. lwoff
# [9] = tested on: Acinetobacter lwoffii (6056, V22); experiment: MIC-assay, Mueller-Hinton broth with G-block alginate, 384-well, OD600
# [10] = tested on: Pseudomonas aeruginosa MDR 301 from Poland (V2); experiment: MIC assay, CAMHB with alginate oligomer, no visible growth; assay type: cell-based; conditions: V2 MDR 301 PA
# [11] = tested on: strains of Klebsiella pneumoniae displaying MDR phenotypes; experiment: MIC-assay, Mueller-Hinton broth with G-block alginate, 384-well, OD600 (Table 10); assay type: cell-based
# From the text: Minimum inhibitory concentration (MICs) of different antibiotics for strains of Klebsiella pneumoniae displaying MDR phenotypes in the presence of varying concentrations of OligoCF-5/20 (0-10%). (MIC values are expressed in μg ml^−1).
# [12] = tested on: Pseudomonas aeruginosa CFA 24-1, clinical mucoid strain (R80); experiment: MIC assay, CAMHB with alginate oligomer, no visible growth; assay type: cell-based; conditions: R80
# [13] = tested on: Burkholderia cepacia (1322, V23); experiment: MIC-assay, Mueller-Hinton broth with G-block alginate, 384-well, OD600
# [14] = tested on: Acinetobacter baumannii MDR ACB from Libya (V4); experiment: MIC assay, CAMHB with alginate oligomer, no visible growth; assay type: cell-based
# From the text: (§2) The study described in Example 1 was repeated with the following strains of bacteria and antibiotics as detailed in Tables 4, 5 and 6.
# The study described in Example 1 was repeated with the following strains of Acinetobacter baumannii, antibiotics and M-block alginate oligomer in place of OligoG CF-5/20 as detailed in Table 7. The M-block oligomer is 100% M with a DPn of 15 to 18,
# [15] = tested on: V22 6056 Acinetobacter; experiment: as above; assay type: cell-based, Acinetobacter lwoffii; conditions: Table 5, V22 MDR Acin. lwoff
# [16] = tested on: Pseudomonas aeruginosa MDR R22 from China (V1); experiment: as above; assay type: cell-based; conditions: V1 MDR R22 PA
# From the text: as §2
# [17] = Table 9, G-block (OligoCF-5/20) 0%
# [18] = Table 9, G-block (OligoCF-5/20) 2%
# [19] = Table 9, G-block (OligoCF-5/20) 6%
# [20] = Table 9, G-block (OligoCF-5/20) 10%
# [21] = Pseudomonas aeruginosa, Table 1, OligoCF-5/20 0G, read-out: MIC
# [22] = Pseudomonas aeruginosa, Table 1, OligoCF-5/20 +2% G, read-out: MIC
# [23] = Pseudomonas aeruginosa, Table 1, OligoCF-5/20 +6% G, read-out: MIC
# [24] = Pseudomonas aeruginosa, Table 1, OligoCF-5/20 +10% G, read-out: MIC
smiles,measurement,setting,value
CC[C@H]1OC(=O)[C@H](C)[C@@H](O[C@H]2C[C@@](C)(OC)[C@@H](O)[C@H](C)O2)[C@H](C)[C@@H](O[C@@H]2O[C@H](C)C[C@H](N(C)C)[C@H]2O)[C@](C)(O)C[C@@H](C)CN(C)[C@H](C)[C@@H](O)[C@]1(C)O [Azithromycin],MIC,"[1]; Acinetobacter baumannii, OligoCF-5/20 0G, read-out: MIC",16 µg/mL
same,MIC,[1]; OligoCF-5/20 +2% G,4^† μg/ml
same,MIC,[1]; OligoCF-5/20 +6% G,0.5^† μg/ml
same,MIC,[1]; OligoCF-5/20 +10% G,<0.25 µg/mL
same,MIC,[2]; G-block (OligoCF-5/20) 0%,16 µg/mL
same,MIC,[2]; G-block (OligoCF-5/20) 2%,16 µg/mL
same,MIC,[2]; G-block (OligoCF-5/20) 6%,8 µg/mL
same,MIC,[2]; G-block (OligoCF-5/20) 10%,16 µg/mL
same,MIC,[3]; G-block (OligoCF-5/20) 0%,< 2 µg/mL
same,MIC,[3]; G-block (OligoCF-5/20) 2%,< 2 µg/mL
same,MIC,[3]; G-block (OligoCF-5/20) 6%,< 2 µg/mL
same,MIC,[3]; G-block (OligoCF-5/20) 10%,< 2 µg/mL
same,MIC,[4]; G-block (OligoCF-5/20) 2%,64 µg/mL
same,MIC,[4]; G-block (OligoCF-5/20) 6%,64 µg/mL
same,MIC,[4]; G-block (OligoCF-5/20) 10%,32 µg/mL
same,MIC,"[5]; Klebsiella pneumoniae, OligoCF-5/20 0G, read-out: MIC",32 µg/mL
same,MIC,[5]; OligoCF-5/20 +2% G,8 µg/mL
same,MIC,[5]; OligoCF-5/20 +6% G,32 µg/mL
same,MIC,[5]; OligoCF-5/20 +10% G,32 µg/mL
same,MIC,[6]; [17],16 µg/mL
same,MIC,[6]; [18],2 µg/mL
same,MIC,[6]; [19],< 1 µg/mL
same,MIC,[6]; [20],< 1 µg/mL
same,MIC,"[7]; Pseudomonas aeruginosa, ATCC15692, Table 1, OligoCF-5/20 0G, read-out: MIC",128 µg/mL
same,MIC,"[7]; Pseudomonas aeruginosa, ATCC15692, Table 1, OligoCF-5/20 +2% G, read-out: MIC",64 µg/mL
same,MIC,"[7]; Pseudomonas aeruginosa, ATCC15692, Table 1, OligoCF-5/20 +6% G, read-out: MIC",16 µg/mL
same,MIC,"[7]; Pseudomonas aeruginosa, ATCC15692, Table 1, OligoCF-5/20 +10% G, read-out: MIC",4 µg/mL
same,MIC,"[7]; Table 2, OligoCF-5/20 0G",128^†
same,MIC,"[7]; Table 2, OligoCF-5/20 +2% G",64^†
same,MIC,"[7]; Table 2, OligoCF-5/20 +6% G",16^†
same,MIC,"[7]; Table 2, OligoCF-5/20 +10% G",4^†
same,MIC,"[8]; Acinetobacter lwoffii, OligoCF-5/20 0G, read-out: MIC",< 0.25 µg/mL
same,MIC,[8]; OligoCF-5/20 +2% G,<0.25 µg/mL
same,MIC,[8]; OligoCF-5/20 +6% G,<0.25 µg/mL
same,MIC,[8]; OligoCF-5/20 +10% G,<0.25 µg/mL
same,MIC,[9]; [17],< 2 µg/mL
same,MIC,[9]; [18],< 2 µg/mL
same,MIC,[9]; [19],< 2 µg/mL
same,MIC,[9]; [20],< 2 µg/mL
same,MIC,[10]; [21],64 µg/mL
same,MIC,[10]; [22],64 µg/mL
same,MIC,[10]; [23],32 µg/mL
same,MIC,[10]; [24],16 µg/mL
same,MIC,"[10]; Table 2, OligoCF-5/20 0G",64^†
same,MIC,"[10]; Table 2, OligoCF-5/20 +2% G",64 µg/mL
same,MIC,"[10]; Table 2, OligoCF-5/20 +6% G",32^†
same,MIC,"[10]; Table 2, OligoCF-5/20 +10% G",16^†
same,MIC,"[11]; Klebsiella pneumoniae (5712, Wales, V12) MDR, G-block (OligoCF-5/20) 0%, read-out: MIC",16 µg/mL
same,MIC,"[11]; Klebsiella pneumoniae (5712, Wales, V12) MDR, G-block (OligoCF-5/20) 2%, read-out: MIC",16 µg/mL
same,MIC,"[11]; Klebsiella pneumoniae (5712, Wales, V12) MDR, G-block (OligoCF-5/20) 6%, read-out: MIC",16 µg/mL
same,MIC,"[11]; Klebsiella pneumoniae (5712, Wales, V12) MDR, G-block (OligoCF-5/20) 10%, read-out: MIC",16 µg/mL
same,MIC,"[11]; Klebsiella pneumoniae (IR25, India, V6) MDR, G-block (OligoCF-5/20) 0%",128 µg/mL
same,MIC,"[11]; Klebsiella pneumoniae (IR25, India, V6) MDR, G-block (OligoCF-5/20) 2%, read-out: MIC",64 µg/mL
same,MIC,"[11]; Klebsiella pneumoniae (IR25, India, V6) MDR, G-block (OligoCF-5/20) 6%, read-out: MIC",32 µg/mL
same,MIC,"[11]; Klebsiella pneumoniae (IR25, India, V6) MDR, G-block (OligoCF-5/20) 10%, read-out: MIC",16 µg/mL
same,MIC,"[11]; Klebsiella pneumoniae (K3, India, V8) MDR, G-block (OligoCF-5/20) 0%, read-out: MIC",16 µg/mL
same,MIC,"[11]; Klebsiella pneumoniae (K3, India, V8) MDR, G-block (OligoCF-5/20) 2%, read-out: MIC",8 µg/mL
same,MIC,"[11]; Klebsiella pneumoniae (K3, India, V8) MDR, G-block (OligoCF-5/20) 6%, read-out: MIC",16 µg/mL
same,MIC,"[11]; Klebsiella pneumoniae (K3, India, V8) MDR, G-block (OligoCF-5/20) 10%, read-out: MIC",16 µg/mL
same,MIC,[12]; [21],256 µg/mL
same,MIC,[12]; [22],128 µg/mL
same,MIC,[12]; [23],64 µg/mL
same,MIC,[12]; [24],8 µg/mL
same,MIC,"[12]; Table 2, OligoCF-5/20 0G",256^†
same,MIC,"[12]; Table 2, OligoCF-5/20 +2% G",128^†
same,MIC,"[12]; Table 2, OligoCF-5/20 +6% G",64^†
same,MIC,"[12]; Table 2, OligoCF-5/20 +10% G",8^†
same,MIC,"[13]; Table 8, G-block (OligoCF-5/20) 0%",64 µg/mL
same,MIC,"[13]; Table 8, G-block (OligoCF-5/20) 2%",32 µg/mL
same,MIC,"[13]; Table 8, G-block (OligoCF-5/20) 6%",32 µg/mL
same,MIC,"[13]; Table 8, G-block (OligoCF-5/20) 10%",8 µg/mL
same,MIC,"[14]; Acinetobacter baumannii, Table 1, V4 ACB (Libya), OligoCF-5/20 0G, read-out: MIC",8 µg/mL
same,MIC,"[14]; Acinetobacter baumannii, Table 1, V4 ACB (Libya), OligoCF-5/20 +2% G, read-out: MIC",2 µg/mL
same,MIC,"[14]; Acinetobacter baumannii, Table 1, V4 ACB (Libya), OligoCF-5/20 +6% G, read-out: MIC",< 0.25 µg/mL
same,MIC,"[14]; Acinetobacter baumannii, Table 1, V4 ACB (Libya), OligoCF-5/20 +10% G, read-out: MIC",< 0.25 µg/mL
same,MIC,"[14]; Acinetobacter baumannii, Table 7, V4 MDR Acin baum (Libya), M-block oligomer 0M, read-out: MIC",8 µg/mL
same,MIC,"[14]; Acinetobacter baumannii, Table 7, V4 MDR Acin baum (Libya), M-block oligomer +2% M, read-out: MIC",8 µg/mL
same,MIC,"[14]; Acinetobacter baumannii, Table 7, V4 MDR Acin baum (Libya), M-block oligomer +6% M, read-out: MIC",8 µg/mL
same,MIC,"[14]; Acinetobacter baumannii, Table 7, V4 MDR Acin baum (Libya), M-block oligomer +10% M, read-out: MIC",2 µg/mL
same,effect in combination with alginate oligomers,"[14]; Example 1, Acinetobacter baumannii isolate",more positive effect
same,MIC,"[14]; Table 2, V4 ACB (Libya), OligoCF-5/20 0G",8^†
same,MIC,"[14]; Table 2, V4 ACB (Libya), OligoCF-5/20 +2% G",2^†
same,MIC,"[14]; Table 2, V4 ACB (Libya), OligoCF-5/20 +6% G",<0.25^†
same,MIC,"[14]; Table 2, V4 ACB (Libya), OligoCF-5/20 +10% G",<0.25†
same,MIC,"[15]; Acinetobacter, OligoCF-5/20 0G, read-out: MIC",< 0.25 µg/mL
same,MIC,[15]; OligoCF-5/20 +2% G,<0.25 µg/mL
same,MIC,[15]; OligoCF-5/20 +6% G,<0.25 µg/mL
same,MIC,[15]; OligoCF-5/20 +10% G,<0.25 µg/mL
same,MIC,[16]; [21],64 µg/mL
same,MIC,[16]; [22],64 µg/mL
same,MIC,[16]; [23],64 µg/mL
same,MIC,[16]; [24],32 µg/mL
same,MIC,"[16]; Table 2, OligoCF-5/20 0G",64^†
same,MIC,"[16]; Table 2, OligoCF-5/20 +2% G",64 µg/mL
same,MIC,"[16]; Table 2, OligoCF-5/20 +6% G",64 µg/mL
same,MIC,"[16]; Table 2, OligoCF-5/20 +10% G",32^†
